Read-outs that look alike come from different tables or passages of the source.

One experiment addresses human recombinant BACE1 (Homo sapiens (Human), UniProt P56817). Nature of the experiment: In vitro enzymatic BACE1 FRET assay. Type of experiment: biochemical. To be noted: read-out: IC50 IP (μM) BACE1 enzyme. The gist of the method:
(§1)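 Fluorescence from cleavage of a quenched peptide spanning the BACE site (50 nM) was read at 488 nm excitation, 590 nm emission. Purified enzyme (Ni-NTA) and compound reacted for one hour before a Tris stop shifted pH to neutral.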

Experiment [1] relates to Aβ40 in conditioned medium of cells stably expressing Amyloid Precursor Protein (APP). Nature of the experiment: In vitro BACE-1 cell-based assay (Aβ40 sandwich ELISA). To be noted: read-out: IC50 IP (μM) BACE1 cell. The gist of the method: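 Aβ40 in supernatants measured by time-resolved fluorescence sandwich ELISA, with pAb40 as capture and biotin-6E10 as detector antibody, each incubated at 4 °C.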

The next experiment has as its target Recombinant Cat D (Homo sapiens (Human), UniProt P07339). The experiment can be described thus: In vitro enzymatic Cathepsin D (Cat D) FRET assay. To be noted: read-out: IC50 IP (μM) CatD. Type of experiment: biochemical. The gist of the method: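 Fluorescence at 500 nm excitation and 580 nm emission reports cleavage of a quenched fluorophore–quencher peptide (20 nM) by CHO-expressed Cat D. Reactions ran one hour in 0.05 M citrate pH 3.5, 5 mM CHAPS, 10% DMSO final before a Tris stop raised pH to neutrality.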

In a further experiment the target is human recombinant BACE2 (Homo sapiens (Human), UniProt Q9Y5Z0). Nature of the experiment: In vitro enzymatic BACE2 FRET assay. In kind it is biochemical. The note with it: read-out: IC50 IP (μM) BACE2 enzyme. The gist of the method: as §1
Sequence of human recombinant BACE2 (Q9Y5Z0 63-518): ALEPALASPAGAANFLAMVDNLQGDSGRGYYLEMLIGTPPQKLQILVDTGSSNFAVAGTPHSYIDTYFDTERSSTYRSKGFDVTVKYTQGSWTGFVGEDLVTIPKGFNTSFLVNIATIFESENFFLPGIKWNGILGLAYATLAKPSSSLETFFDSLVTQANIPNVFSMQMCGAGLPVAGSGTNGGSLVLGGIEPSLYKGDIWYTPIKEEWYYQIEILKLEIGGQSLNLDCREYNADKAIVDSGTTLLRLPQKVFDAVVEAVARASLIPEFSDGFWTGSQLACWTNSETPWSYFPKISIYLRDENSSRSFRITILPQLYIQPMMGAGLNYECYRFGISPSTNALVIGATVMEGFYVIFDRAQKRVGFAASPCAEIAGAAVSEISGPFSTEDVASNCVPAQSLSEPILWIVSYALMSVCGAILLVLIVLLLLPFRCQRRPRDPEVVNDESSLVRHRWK

Sequence of human recombinant BACE1 (P56817 46-501): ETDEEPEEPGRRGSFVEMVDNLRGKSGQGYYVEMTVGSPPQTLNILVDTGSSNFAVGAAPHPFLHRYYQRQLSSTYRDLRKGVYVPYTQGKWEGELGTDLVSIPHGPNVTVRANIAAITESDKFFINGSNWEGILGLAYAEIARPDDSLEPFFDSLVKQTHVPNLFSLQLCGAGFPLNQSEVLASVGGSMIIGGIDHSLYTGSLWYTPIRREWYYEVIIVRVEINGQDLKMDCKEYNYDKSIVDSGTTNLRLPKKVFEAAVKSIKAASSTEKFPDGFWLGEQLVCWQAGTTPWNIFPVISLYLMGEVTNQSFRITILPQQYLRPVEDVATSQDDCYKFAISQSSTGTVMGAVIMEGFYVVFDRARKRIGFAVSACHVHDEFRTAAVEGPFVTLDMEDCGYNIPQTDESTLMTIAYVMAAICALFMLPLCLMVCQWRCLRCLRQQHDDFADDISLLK
Sequence of Recombinant Cat D (P07339 65-412): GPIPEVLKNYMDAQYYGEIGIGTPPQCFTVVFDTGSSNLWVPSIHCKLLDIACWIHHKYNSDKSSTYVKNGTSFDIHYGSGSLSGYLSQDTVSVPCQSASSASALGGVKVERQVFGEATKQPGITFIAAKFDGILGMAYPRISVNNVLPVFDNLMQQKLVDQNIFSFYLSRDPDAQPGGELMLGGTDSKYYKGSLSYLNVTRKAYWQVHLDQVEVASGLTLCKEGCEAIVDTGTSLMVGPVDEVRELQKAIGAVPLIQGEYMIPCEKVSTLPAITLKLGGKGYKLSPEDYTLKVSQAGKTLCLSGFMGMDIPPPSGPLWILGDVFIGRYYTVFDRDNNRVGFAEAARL

`Cc1nc(OCC(F)(F)F)cnc1C(=O)Nc1ccc(F)c([C@@]2(CF)N=C(N)S[C@@]3(CO)C[C@H]32)c1` [Example 79, N-(3-((1S,5S,6S)-3-amino-5-(fluoromethyl)-1-(hydroxymethyl)-2-thia-4-azabicyclo[4.1.0]hept-3-en-5-yl)-4-fluorophenyl)-3-methyl-5-(2,2,2-trifluoroethoxy)-2-pyrazinecarboxamide]: the IC50 on human recombinant BACE1 (BACE1 FRET enzyme assay) is 0.00489 µM; in experiment [1] (BACE1 cell-based assay) it was 0.0284 µM; on Recombinant Cat D (Cathepsin D FRET enzyme assay), greater than 400 µM; on human recombinant BACE2 (BACE2 FRET enzyme assay) it was 0.143 µM.

For `COc1cnc2c(Nc3cc(F)c(F)c([C@@]4(C)N=C(N)S[C@H]5C[C@H]54)c3)nccc2n1` [Example 900, N-(3-((1S,5S,6S)-3-amino-5-methyl-2-thia-4-azabicyclo[4.1.0]hept-3-en-5-yl)-4,5-difluorophenyl)-2-methoxypyrido[3,4-b]pyrazin-5-amine], the IC50 at human recombinant BACE1 was determined as 0.0324 µM; in experiment [1] it was 0.195 µM; at Recombinant Cat D, 559 µM; at human recombinant BACE2, 0.0972 µM.

For `CC(C)(C)NC(=O)[C@]12C[C@H]1[C@@](C)(c1cc(NC(=O)c3cnc(OCC(F)(F)F)cn3)ccc1F)N=C(N)S2` [Example 1002, (1S,5S,6S)-3-amino-N-tert-butyl-5-(2-fluoro-5-(((5-(2,2,2-trifluoroethoxy)-2-pyrazinyl)carbonyl)amino)phenyl)-5-methyl-2-thia-4-azabicyclo[4.1.0]hept-3-ene-1-carboxamide], the IC50 amounted to 0.00177 µM at human recombinant BACE1, 0.00484 µM in experiment [1], 82.7 µM on Recombinant Cat D and 0.165 µM at human recombinant BACE2.

As for `COC[C@]12C[C@H]1[C@@](C)(c1cc(Nc3nccc4nc(OCc5ncccn5)cnc34)cc(F)c1F)N=C(N)S2` [Example 881, N-(3-((1S,5S,6S)-3-amino-1-(methoxymethyl)-5-methyl-2-thia-4-azabicyclo[4.1.0]hept-3-en-5-yl)-4,5-difluorophenyl)-2-(2-pyrimidinylmethoxy)pyrido[3,4-b]pyrazin-5-amine], the IC50 on human recombinant BACE1 is 0.00936 µM; in experiment [1], 0.00819 µM; at Recombinant Cat D it was 349 µM; at human recombinant BACE2, 0.14 µM.

Take `COC1CN(C(=O)/C=C/[C@]23C[C@H]2[C@@](CF)(c2cc(NC(=O)c4ccc(Cl)cn4)ccc2F)N=C(N)S3)C1` [Example 766, N-(3-((1R,5S,6S)-3-amino-5-(fluoromethyl)-1-((E)-3-(3-methoxyazetidin-1-yl)-3-oxoprop-1-en-1-yl)-2-thia-4-azabicyclo[4.1.0]hept-3-en-5-yl)-4-fluorophenyl)-5-chloropicolinamide]: the IC50 on human recombinant BACE1 was 0.00105 µM; in experiment [1], 0.0031 µM; on Recombinant Cat D, 848 µM; at human recombinant BACE2, less than 0.00203 µM.

Turning to `N#Cc1cnc2c(Nc3ccc(F)c([C@@]4(CF)N=C(N)S[C@@]5(CO)C[C@H]54)c3)nccc2c1` [Example 50, 8-((3-((1S,5S,6S)-3-amino-5-(fluoromethyl)-1-(hydroxymethyl)-2-thia-4-azabicyclo[4.1.0]hept-3-en-5-yl)-4-fluorophenyl)amino)-1,7-naphthyridine-3-carbonitrile], the IC50 is 0.00225 µM at human recombinant BACE1 (BACE1 FRET enzyme assay), 0.00505 µM in experiment [1] (BACE1 cell-based assay), greater than 133 µM on Recombinant Cat D (Cathepsin D FRET enzyme assay) and 0.00286 µM at human recombinant BACE2 (BACE2 FRET enzyme assay).

Regarding `C#C[C@H](C)Oc1cnc2c(Nc3cc(F)c(F)c([C@@]4(C)N=C(N)S[C@@]5(C(=O)N6CCCC6)C[C@H]54)c3)nccc2n1` [Example 937, N-(3-((1S,5S,6S)-3-amino-5-methyl-1-(1-pyrrolidinylcarbonyl)-2-thia-4-azabicyclo[4.1.0]hept-3-en-5-yl)-4,5-difluorophenyl)-2-(((1S)-1-methyl-2-propyn-1-yl)oxy)pyrido[3,4-b]pyrazin-5-amine], the IC50 was 0.00207 µM on human recombinant BACE1, 0.00624 µM in experiment [1], 872 µM on Recombinant Cat D and 0.0102 µM at human recombinant BACE2.

Turning to `CC#CCOc1cnc2c(Nc3ccc(F)c([C@@]4(CF)N=C(N)S[C@@]5(/C=C/C(=O)N(C)C)C[C@H]54)c3)nccc2c1` [Example 771, (2E)-3-((1R,5S,6S)-3-amino-5-(5-((3-(2-butyn-1-yloxy)-1,7-naphthyridin-8-yl)amino)-2-fluorophenyl)-5-(fluoromethyl)-2-thia-4-azabicyclo[4.1.0]hept-3-en-1-yl)-N,N-dimethyl-2-propenamide], the IC50 on human recombinant BACE1 is 0.00204 µM; in experiment [1] it was 0.00146 µM; on Recombinant Cat D it was 282 µM; at human recombinant BACE2, 0.0786 µM.

`COc1cnc(C(=O)Nc2cc(F)c(F)c([C@@]3(CF)N=C(N)S[C@H]4C[C@H]43)c2)c(C)c1` [Example 81, N-(3-((1S,5S,6S)-3-amino-5-(fluoromethyl)-2-thia-4-azabicyclo[4.1.0]hept-3-en-5-yl)-4,5-difluorophenyl)-5-methoxy-3-methyl-2-pyridinecarboxamide]: the IC50 at human recombinant BACE1 (BACE1 FRET enzyme assay) amounted to 0.0219 µM; in experiment [1] (BACE1 cell-based assay), 0.047 µM; on Recombinant Cat D (Cathepsin D FRET enzyme assay) it was 1390 µM; at human recombinant BACE2 (BACE2 FRET enzyme assay), 0.0116 µM.

As to `C[C@]1(c2cc(Nc3nccc4cc(C#N)cnc34)cc(F)c2F)N=C(N)S[C@@]2(CF)C[C@H]21` [Example 60, 8-((3-((1S,5S,6S)-3-amino-1-(fluoromethyl)-5-methyl-2-thia-4-azabicyclo[4.1.0]hept-3-en-5-yl)-4,5-difluorophenyl)amino)-1,7-naphthyridine-3-carbonitrile], the IC50 turned out to be 0.00135 µM on human recombinant BACE1 (BACE1 FRET enzyme assay), 0.00767 µM in experiment [1] (BACE1 cell-based assay), 204 µM at Recombinant Cat D (Cathepsin D FRET enzyme assay) and 0.00174 µM on human recombinant BACE2 (BACE2 FRET enzyme assay).

On to `C#CCOc1cnc(C(=O)Nc2ccc(F)c([C@@]3(C)N=C(N)S[C@@]4(C(=O)N5CCCC5)C[C@H]43)c2)cn1` [Example 633, N-(3-((1S,55,6S)-3-amino-5-methyl-1-(1-pyrrolidinylcarbonyl)-2-thia-4-azabicyclo[4.1.0]hept-3-en-5-yl)-4-fluorophenyl)-5-(2-propyn-1-yloxy)-2-pyrazinecarboxamide], for which the IC50 on human recombinant BACE1 was 0.00036 µM; in experiment [1] it was 0.000224 µM; at Recombinant Cat D it was 67.5 µM; on human recombinant BACE2 it was 0.00165 µM.

As for `C#CCOc1cnc2c(Nc3ccc(F)c([C@@]4(C)N=C(N)S[C@@]5(C(=O)NC6CC6)C[C@H]54)c3)ncnc2c1` [Example 791, (1S,5S,6S)-3-amino-N-cyclopropyl-5-(2-fluoro-5-((7-(2-propyn-1-yloxy)pyrido[3,2-d]pyrimidin-4-yl)amino)phenyl)-5-methyl-2-thia-4-azabicyclo[4.1.0]hept-3-ene-1-carboxamide], the IC50 on human recombinant BACE1 was found to be 0.000658 µM; in experiment [1], 0.00183 µM; on Recombinant Cat D it was 317 µM; on human recombinant BACE2, 0.0712 µM.

In the case of `COC[C@]12C[C@H]1[C@@](C)(c1cc(NC(=O)c3cnc(OCc4nccs4)cn3)cc(F)c1F)N=C(N)S2` [Example 1034, N-(3-((1S,5S,6S)-3-amino-1-(methoxymethyl)-5-methyl-2-thia-4-azabicyclo[4.1.0]hept-3-en-5-yl)-4,5-difluorophenyl)-5-(1,3-thiazol-2-ylmethoxy)-2-pyrazinecarboxamide], the IC50 at human recombinant BACE1 came out at 0.0014 µM; in experiment [1], 0.0109 µM; at Recombinant Cat D, 1400 µM; on human recombinant BACE2, 0.0118 µM.

In the case of `C#CCOc1cnc2c(Nc3ccc(F)c([C@@]4(CF)N=C(N)S[C@H]5C[C@H]54)c3)nccc2n1` [Example 762, N-(3-((1S,5S,6S)-3-amino-5-(fluoromethyl)-2-thia-4-azabicyclo[4.1.0]hept-3-en-5-yl)-4-fluorophenyl)-2-(2-propyn-1-yloxy)pyrido[3,4-b]pyrazin-5-amine], the half-maximal inhibitory concentration (IC50) is 0.00303 µM at human recombinant BACE1, 0.0142 µM in experiment [1], 669 µM on Recombinant Cat D and 0.0384 µM on human recombinant BACE2.

Turning to `C[C@]1(c2cc(NC(=O)c3ccc(Cl)cn3)ccc2F)N=C(N)S[C@@]2(CF)C[C@H]21` [Example 821, N-(3-((1S,5S,6S)-3-amino-1-(fluoromethyl)-5-methyl-2-thia-4-azabicyclo[4.1.0]hept-3-en-5-yl)-4-fluorophenyl)-5-chloro-2-pyridinecarboxamide], the IC50 was 0.00298 µM at human recombinant BACE1, 0.00428 µM in experiment [1], 1170 µM at Recombinant Cat D and less than 0.00203 µM at human recombinant BACE2.

Consider `C[C@]1(c2cc(NC(=O)c3cnc(OCC(F)(F)F)cn3)ccc2F)N=C(N)S[C@@]2(C(=O)N3CC[C@@H](F)C3)C[C@H]21` [Example 991, N-(3-((1S,5S,6S)-3-amino-1-((R)-3-fluoropyrrolidine-1-carbonyl)-5-methyl-2-thia-4-azabicyclo[4.1.0]hept-3-en-5-yl)-4-fluorophenyl)-5-(2,2,2-trifluoroethoxy)pyrazine-2-carboxamide], for which the IC50 on human recombinant BACE1 amounted to 0.000297 µM; in experiment [1], 0.000265 µM; on Recombinant Cat D, 664 µM; on human recombinant BACE2 it was 0.0097 µM.

Source of the values: patent US20160046618A1, “Cyclopropyl Fused Thiazin-2-Amine Compounds as Beta-Secretase Inhibitors and Methods of Use” (AMGEN INC., priority 2014, published 2016).
